According to patent US20110251135A1, “INHIBITORS OF PERITONEAL SEEDING OF CANCER CELLS” (University of Utah Research Foundation, priority 2008, published 2011):

Tests used:
[1] = tested on: adherent HT-29 cells; assay: Annexin V-FITC apoptosis assay, adherent cells; format: cell-based, human
Description: FIG. 3 is a group of graphs that show NF-κB inhibitors cause apoptosis of colon cancer cells. […] The data points represent the average percent of annexin V-positive, propidium iodide-negative cells (of the total cells counted) from triplicate experiments. The error bars represent the standard error of the means. […] The results shown are a graphic representation of individual flow cytometry results expressed as the percentage of cells that were annexin V-positive of those that excluded propidium iodide. […] An immunoblot of the lysates for cleaved PARP was performed. Each lane represents equal total protein concentrations. […] The cells were allowed to adhere to plastic dishes for 1 hour after which they were washed gently in PBS and stained with crystal violet. The crystal violet stained cells were solubilized in deoxycholate and the absorbance detected in a spectrophotometer at 590 nm. The adherent cells were expressed as a fraction of the controls. Each data point represents the average of triplicate experiments and the error bars the standard errors of the means.
(§1) The data points represent the means of triplicate experiments and the error bars the standard errors of the means. […] The percent of apoptotic cells was then determined by the annexin V assay. […] The results shown are typical of two separate experiments. […] Immunoblots were performed for c-IAP-2, TRAF-1, TRAF-2, and FLIP. All lanes contain equal total protein.
(§2) Single cell suspensions were plated at 100,000 cells per well in 24-well plates in media containing DMSO, BAY 11-7082, BAY 11-7085, or MG-132 for 8-24 hours in an incubator. Alternatively, DMSO, BAY 11-7082, BAY 11-7085, or MG-132 were added to cells that were confluent and adherent for several days. The nonadherent cells were aspirated off with the media and spun for 3 minutes at 2,000 rpm in 15 mL polypropylene tubes. The adherent cells were washed twice with PBS, dispersed in trypsin, and spun down for 3 minutes at 2,000 rpm in 15 mL polypropylene tubes. The nonadherent and adherent cells were resuspended in 1× binding buffer (10 mM HEPES/NaOH, pH 7.4, 140 mM NaCl, and 2.5 mM CaCl2) to a final concentration of 10^6 cells/mL. 100 μL of the cell solution were transferred to a 5 mL culture tube and incubated with 5 μL of annexin V-FITC-conjugated monoclonal antibody (Pharmingen) and 10 μl, of propidium iodide (from a 50 μg/mL stock solution made in PBS) in the dark at 25° C. for 15 minutes. 400 μL of binding buffer was added to each tube and the cells were analyzed by flow cytometry immediately. The percent of apoptosis was determined as the percent of annexin V-positive, propidium iodide-negative cells of the total cells counted.

[2] = tested on: NF-κB; assay: NF-κB electrophoretic mobility shift assay (EMSA), nuclear lysates of treated HT-29 cells; format: cell-based, human; settings: 10 μM, 3 and 6 hour incubations
[3] = tested on: IκB phosphorylation and TNFα-induced NF-κB activation; settings: Pierce et al., J Biol Chem 272:21096-103, 1997; cited from earlier work
[4] = tested on: HT-29 cells; assay: Soft agar colony formation assay; format: cell-based, human; settings: 10 μM for 6 days
Description: (§3) DLD-1, HCT-116, and HT-29 cells were cultured for 6 days in soft agar in the presence of DMSO (control), 10 μM BAY 11-7082, or 10 μM BAY 11-7085. The data points represent the means of colony counts per field (20×) performed in 5 different regions of the culture dishes. The data shown represent a typical result of two separate experiments. FIG. 2B and FIG. 2C are graphs that show athymic mice received subcutaneous injections of HT-29 (FIG. B) or HCT-116 (FIG. C) cells, followed by […] of BAY 11-7085 (dark bars) or DMSO (white bars) intraperitoneally twice weekly. The bars represent the 25-75% ranges of the tumor volumes and the horizontal lines in the bars are the medians. Using the Kruskal-Wallace statistical test to compare the median tumor volumes between BAY 11-7085 and DMSO yielded a p-value of 0.005 for HT-29 cells but >0.05 for HCT-116 cells.
(§4) Anchorage-independent cell growth is a hallmark of cancer cells and is a good correlation to tumorigencity in vivo. Therefore, the effects of BAY 11-7082 and BAY 11-7085 were examined on colon cancer cell growth using the soft agar colony formation assay.

[5] = tested on: HCT-116 cells; assay: Soft agar colony formation assay; format: cell-based, human; settings: 10 μM for 6 days
Description: as §3, §4

[6] = tested on: DLD-1 cells; assay: Soft agar colony formation assay; format: cell-based, human; settings: 10 μM for 6 days
Description: as §3, §4

[7] = tested on: JNK/SAPK and p38; settings: Pierce et al., J Biol Chem 272:21096-103, 1997; cited from earlier work
[8] = tested on: HT-29 xenografts; assay: Subcutaneous colon cancer xenograft in athymic mice; format: in vivo, mouse; settings: athymic mice; compound alone; cell line not given
Description: as §3
HT-29 and HCT-116 cells were harvested in 0.25% trypsin-PBS-EDTA, washed once in media and PBS, and resuspended in PBS at 1 million cells per 200 μL. One million cells were injected either subcutaneously in the backs or intraperitoneally in 5 week old female nu/nu athymic mice (Charles River Labs). For the mice with subcutaneous tumors, the tumors were allowed to establish themselves for 10 days after which they were randomized to BAY 11-7085 or DMSO. For the mice with intraperitoneal tumors, the mice received DMSO or BAY 11-7085 (5 mg/kg) 24 hours before the cancer cells were injected intraperitoneally. […] Subcutaneous tumor sizes were determined by measuring the length and width with calipers. These studies were approved by the University of Utah Institutional Review Board and Institutional Animal Care and Use Committee and performed in the Animal Resource Center. Mice were euthanized when they experienced a greater than 10% loss in body weight or if they appeared ill. Post-mortem examinations included sectioning of kidney, lung, and liver tissues which were stained with hematoxylin and eosin followed by examination for tissue toxicity/damage by an experienced mouse pathologist (E.J.E.) who was blinded to therapy.
HCT-116 and HT-29 cell lines were used to generate subcutaneous tumors in athymic female mice. The mice were subsequently randomized to be treated with vehicle (DMSO) alone or BAY 11-7085 […] twice weekly for 28 days.

[9] = tested on: DLD-1, HCT-116, HT-29 colon cancer cell lines; assay: Cell proliferation assay (crystal violet, 96-well); format: cell-based, human
Description: as §1
For the cell proliferation assay, cells were dispersed and plated at 40,000 cells/well in 96-well dishes. At various days in culture, the cells were gently washed twice with 100 μL/well of ice-cold blocking buffer (1% radioimmunoassay grade BSA in PBS) and twice with 100 μL/well of ice-cold PBS. The cells were fixed for 10 min in 100% ice-cold methanol (100 μL/well), then allowed to air-dry. The cells were stained with 100 μL/well of 0.1% crystal violet in H20 for 10 minutes, then washed gently four times with dd H20 and four times with PBS. The plates were then air-dried completely. The stained cells were then solubilized in 1% sodium deoxycholate, and the plates read at 590 nm in a spectrophotometer. The absorption at 590 nm is proportional to the number of attached cells.

[10] = tested on: transiently suspended HT-29 cells; assay: Apoptosis of transiently suspended cells during readhesion (annexin V assay); format: cell-based, human; settings: for apoptosis of readhering HT-29 colon cancer cells: NF-κB inhibitors other than BAY 11-7085
Description: HT-29 cells that were either transiently suspended with trypsin-EDTA or adherent for three days, were treated at time zero with DMSO or 10-100 μM BAY 11-7085. The percent of apoptotic cells was determined using the annexin V flow cytometry assay and graphed versus the dose of BAY 11-7085. FIG. 4B are photographs showing DLD-1, FIG. 4C are photographs showing HCT-116, and FIG. 4D are photographs showing HT-29 cells that were transiently suspended in trypsin-EDTA and allowed to readhere to glass coverslips for 1-24 hours. The cells were fixed and immunostained with an NF-κB p65 subunit monoclonal antibody.
The transiently suspended cells were lysed and allowed to bind to DNA oligonucleotides, containing the NF-κB consensus binding site, that were immobilized to 96-well plates. NF-κB protein bound to the oligonucleotides was detected by an antibody to the p65 subunit that only recognized p65 that is bound to DNA. The positive control was HeLa cells that were stimulated with TNFα. A control was performed using excess free NF-κB oligonucleotides (Competitor). […] NF-κB binding activity was determined by the TransAM assay as in FIG. 5A. […] The data shown represent typical results of three separate experiments. […] An immunoblot for COX-2 was performed.
The percentage of apoptotic cells was determined using the annexin V assay. The data points represent the averages of three experiments; bars, +−.SE. E. DLD-1 and F. HT-29 cells were transduced with an adenovirus containing the IκB super-repressor construct. After 3 days, the cells were transiently suspended and allowed to readhere in the presence of subapoptotic concentrations of BAY 11-7085 or DMSO (vehicle) for 8 hours. The data are expressed as fractions of cells surviving compared with the controls (no adenovirus) and were quantitatively determined by staining the remaining adherent cells with crystal violet.
as §2
Various concentrations of BAY 11-7085 were added to HT-29 cells that were transiently suspended in trypsin-PBS for approximately 15 minutes before replating. The transiently suspended cells were quickly allowed to readhere in order to prevent anoikis. Alternatively, BAY 11-7085 was added to adherent HT-29 cell monolayers.

[11] = tested on: colon and pancreatic cancer cells; assay: Apoptosis of colon and pancreatic cancer cells during readhesion; format: cell-based, human; settings: not shown

Cc1ccc(S(=O)(=O)/C=C/C#N)cc1 [BAY 11-7082, (2E)-3-(tolylsulfonyl)-2-propenenitrile]
level of apoptosis (annexin V-positive, propidium iodide-negative cells) ([1]; adherent HT-29, 24 hours, BAY compounds at doses up to 20, MG-132 20 μM): caused an increase in the level of apoptosis
inhibition of NF-κB activity (EMSA) [2]: more profound inhibition of NF-κB activity occurred with BAY 11-7085 than BAY 11-7082
IκB phosphorylation and TNFα-induced NF-κB activation [3]: inhibit IκB phosphorylation and TNFα-induced NF-κB activation
anchorage-independent proliferation [4]: significantly inhibited
anchorage-independent proliferation [5]: but not HCT-116
anchorage-independent proliferation [6]: significantly inhibited
activation of JNK/SAPK and p38 [7]: activate JNK/SAPK and p38
colon cancer xenograft growth [8]: inhibit colon cancer xenograft growth
cell proliferation ([9]; 10 μM, cultured up to 8 days): but not BAY 11-7082 greatly inhibited cell proliferation

S=C(S)N1CCCC1 [PDTC, pyrrolidine dithiocarbamate]
induction of apoptosis of HT-29 cells during readhesion ([10]; various concentrations, 4 hours, compared with BAY 11-7085): caused apoptosis of HT-29 cells during readhesion

CC(C)C[C@H](NC(=O)[C@H](Cc1ccccc1)NC(=O)c1cnccn1)B(O)O [bortezomib]
apoptosis of colon and pancreatic cancer cells during readhesion [11]: failed to induced apoptosis
apoptosis of readhering HT-29 colon cancer cells [10]: failed to induce apoptosis

cA2: antagonistic and chimeric TNFα monoclonal antibody, inhibits TNFα binding to TNFα receptors
effect of cA2 pretreatment on BAY 11-7085-induced apoptosis ([1]; HT-29, 50 μg/mL cA2 for 48 hours, then 20 μM BAY 11-7085 for 24 hours): did not diminish BAY 11-7085-induced apoptosis
colon cancer cell proliferation ([9]; cA2 at 10 and 50 μg/mL, after several days of treatment): caused a significant inhibition of colon cancer cell proliferation

infliximab
apoptosis of colon and pancreatic cancer cells during readhesion [11]: failed to induced apoptosis
apoptosis of readhering HT-29 colon cancer cells [10]: failed to induce apoptosis
